For this experiment, the system named is primary acute myeloid leukemia (AML) cells obtained from patients. The experiment can be described thus: Kinase inhibitor library screening with and without NSC130362, primary AML cells. Type of experiment: cell-based, Human.
Setting [1] is: ratio of EC50 for inhibitor to EC50 for inhibitor/NSC130362 combination, NSC130362 10 μM, Screen N 2.
[2] abbreviates: ratio of EC50 for inhibitor to EC50 for inhibitor/NSC130362 combination, NSC130362 10 μM, Screen N 1.
The mark [3] stands for this setting: ratio of EC50 for inhibitor to EC50 for inhibitor/NSC130362 combination, NSC130362 10 μM, Screen N 3.

Read-outs that look alike come from different tables or passages of the source.

For `Nc1ncnc2c1nc(Cl)n2[C@@H]1O[C@H](CO)[C@@H](O)[C@H]1O` [8-cl-Adenosine], under setting [1], the “EC50 decrease, fold (Screen N 2)” value is listed as 1.0 fold.
For `C=CCNC1=C2C[C@@H](C)C[C@H](OC)[C@H](O)[C@@H](C)/C=C(\C)[C@H](OC(N)=O)[C@@H](OC)/C=C\C=C(/C)C(=O)NC(=CC1=O)C2=O` [17-AAG (Tanespimycin)], under setting [2], the “EC50 decrease, fold (Screen N 1)” value is recorded as 10.6 fold. Moreover, the “EC50 decrease, fold (Screen N 2)” value under setting [1] was 12.1 fold. Also, under setting [3], the “EC50 decrease, fold (Screen N 3)” value stood at 612.9 fold.
In the case of `Cc1[nH]nc2ccc(-c3cncc(OC[C@@H](N)Cc4ccccc4)c3)cc12` [A-674563], the “EC50 decrease, fold (Screen N 1)” value under setting [2] stood at 3.1 fold. Moreover, under setting [1], the “EC50 decrease, fold (Screen N 2)” value was 1.2 fold. Moreover, the “EC50 decrease, fold (Screen N 3)” value under setting [3] worked out at 6.2 fold.
In the same order, the values of `CC1(C)CCC(CN2CCN(c3ccc(C(=O)NS(=O)(=O)c4ccc(NCC5CCOCC5)c([N+](=O)[O-])c4)c(Oc4cnc5[nH]ccc5c4)c3)CC2)=C(c2ccc(Cl)cc2)C1` [ABT-199 (BH3 mimetic)] are 7.4 fold, 1.0 fold and 9.4 fold.
The like results for `CN(C)CC[C@H](CSc1ccccc1)Nc1ccc(S(=O)(=O)NC(=O)c2ccc(N3CCN(Cc4ccccc4-c4ccc(Cl)cc4)CC3)cc2)cc1[N+](=O)[O-]` [ABT-737] were, in that order, 5.4 fold, 1.0 fold and 0.000857 fold.
In the same order, the values of `Cc1ccccc1C(C(=O)NC1CCCCC1)N(C(=O)Cn1ccnc1C)c1cccc(F)c1` (stereo not shown) [AGI-5198] are 1.0 fold, 1.0 fold and 0.16 fold.
As to `O=C(Nc1cccc(C(F)(F)F)c1)Nc1cc(S(=O)(=O)NC2CC2)ccc1-c1ccsc1` [AGI-6780], the “EC50 decrease, fold (Screen N 1)” value under setting [2] is reported as 1.0 fold. Under setting [1], the “EC50 decrease, fold (Screen N 2)” value is 1.0 fold. Further, the “EC50 decrease, fold (Screen N 3)” value under setting [3] was determined as 17.0 fold.
Turning to `Cc1[nH]c2ccc(F)cc2c1-c1nc2c3cccnc3c3ncccc3c2[nH]1` [APTO-253], under setting [1], the “EC50 decrease, fold (Screen N 2)” value was 1.0 fold.
As to `O=C(NC1CCNCC1)c1[nH]ncc1NC(=O)c1c(Cl)cccc1Cl` [AT7519], the “EC50 decrease, fold (Screen N 1)” value under setting [2] is given as 9.7 fold. Also, the “EC50 decrease, fold (Screen N 2)” value under setting [1] is 2.2 fold. The “EC50 decrease, fold (Screen N 3)” value under setting [3] was 1.1 fold.
In the case of `Oc1ccc([C@H]2COc3cc(O)ccc3C2)cc1` [AUS-131], the “EC50 decrease, fold (Screen N 2)” value under setting [1] was found to be 1.0 fold.
As for `Cc1cc(Nc2nc(N[C@@H](C)c3ncc(F)cn3)ncc2Cl)n[nH]1` [AZD1480], under setting [2], the “EC50 decrease, fold (Screen N 1)” value was found to be 497.3 fold. For the same molecule, the “EC50 decrease, fold (Screen N 2)” value under setting [1] is reported as 1.0 fold. Under setting [3], the “EC50 decrease, fold (Screen N 3)” value turned out to be 0.365 fold.
Turning to `CN(C)C/C=C/C(=O)Nc1cc2c(Nc3ccc(F)c(Cl)c3)ncnc2cc1O[C@H]1CCOC1` [Afatinib (BIBW-2992)], the “EC50 decrease, fold (Screen N 1)” value came to 0.5 fold; the “EC50 decrease, fold (Screen N 2)” value is reported as 1.2 fold; the “EC50 decrease, fold (Screen N 3)” value is 18.4 fold.
Turning to `COc1cc(Nc2ncc3c(n2)-c2ccc(Cl)cc2C(c2c(F)cccc2OC)=NC3)ccc1C(=O)O` [Alisertib (MLN8237)], the “EC50 decrease, fold (Screen N 1)” value under setting [2] was determined as 1.0 fold. In addition, the “EC50 decrease, fold (Screen N 2)” value under setting [1] is reported as 1.0 fold. Further, the “EC50 decrease, fold (Screen N 3)” value under setting [3] is 0.3 fold.
`Nc1ncn([C@@H]2O[C@H](CO)[C@@H](O)[C@H]2O)c(=O)n1` [Azacytidine]: the “EC50 decrease, fold (Screen N 1)” value under setting [2] came to 1.1 fold. Besides, under setting [1], the “EC50 decrease, fold (Screen N 2)” value came to 1.0 fold. In addition, the “EC50 decrease, fold (Screen N 3)” value under setting [3] came out at 266.4 fold.
In the case of `Cn1c(=O)n(-c2ccc(C(C)(C)C#N)cc2)c2c3cc(-c4cnc5ccccc5c4)ccc3ncc21` [BEZ235], the “EC50 decrease, fold (Screen N 1)” value under setting [2] amounted to 4.0 fold. For the same molecule, the “EC50 decrease, fold (Screen N 2)” value under setting [1] was 0.7 fold. Also, the “EC50 decrease, fold (Screen N 3)” value under setting [3] is 8.8 fold.
In the same order, the values of `Cc1ccc2nc(NCCN)c3ncc(C)n3c2c1` [BMS-345541] are 1.2 fold, 1.0 fold and 0.01 fold.
With `CCN(CCO)CCCOc1ccc2c(Nc3cc(CC(=O)Nc4cccc(F)c4)[nH]n3)ncnc2c1` [Barasertib (AZD1152-HQPA)], the “EC50 decrease, fold (Screen N 1)” value under setting [2] is on record as 1.0 fold. In addition, under setting [1], the “EC50 decrease, fold (Screen N 2)” value amounted to 1.0 fold. Besides, the “EC50 decrease, fold (Screen N 3)” value under setting [3] is 642.8 fold.
On to `CC(C)(C)c1ccc(S(=O)(=O)/C=C/C#N)cc1` [Bay 11-7085], for which the “EC50 decrease, fold (Screen N 1)” value under setting [2] is given as 69.0 fold. Besides, the “EC50 decrease, fold (Screen N 2)” value under setting [1] stood at 1.0 fold. Also, the “EC50 decrease, fold (Screen N 3)” value under setting [3] came out at 221.9 fold.
In the same order, the values of `COc1cc(Nc2c(C#N)cnc3cc(OCCCN4CCN(C)CC4)c(OC)cc23)c(Cl)cc1Cl` [Bosutinib (SKI-606)] are 15.8 fold, 1.0 fold and 29.6 fold.
In the case of `COc1cc(N2CCC(N3CCN(C)CC3)CC2)ccc1Nc1ncc(Cl)c(Nc2ccccc2P(C)(C)=O)n1` [Brigatininb (AP-26113)], the “EC50 decrease, fold (Screen N 1)” value under setting [2] worked out at 0.0179 fold. In addition, the “EC50 decrease, fold (Screen N 3)” value under setting [3] is reported as 1.8 fold.
For `Cc1c[nH]c(-c2cnc(NCCNc3ccc(C#N)cn3)nc2-c2ccc(Cl)cc2Cl)n1` [CHIR-99021], the “EC50 decrease, fold (Screen N 1)” value under setting [2] came to 1.0 fold. In addition, the “EC50 decrease, fold (Screen N 2)” value under setting [1] is 1.0 fold. For the same molecule, the “EC50 decrease, fold (Screen N 3)” value under setting [3] was found to be 1.0 fold.
For `O=C(NOCC1CC1)c1ccc(F)c(F)c1Nc1ccc(I)cc1Cl` [CI-1040 (PD184352)], under setting [2], the “EC50 decrease, fold (Screen N 1)” value is 0.9 fold. For the same molecule, the “EC50 decrease, fold (Screen N 2)” value under setting [1] came to 1.0 fold. In addition, the “EC50 decrease, fold (Screen N 3)” value under setting [3] came out at 0.0667 fold.
Consider `Cc1noc2c1-c1ccccc1C(c1ccc(Cl)cc1)=N[C@H]2CC(N)=O` [CPI-0610], for which the “EC50 decrease, fold (Screen N 2)” value under setting [1] is 0.8 fold.
On to `N#CCNC(=O)c1ccc(-c2ccnc(Nc3ccc(N4CCOCC4)cc3)n2)cc1` [CYT387], for which the “EC50 decrease, fold (Screen N 1)” value under setting [2] is recorded as 0.117 fold. The “EC50 decrease, fold (Screen N 2)” value under setting [1] amounted to 1.0 fold. The “EC50 decrease, fold (Screen N 3)” value under setting [3] was found to be 320.1 fold.
The like results for `COc1cc2nccc(Oc3ccc(NC(=O)C4(C(=O)Nc5ccc(F)cc5)CC4)cc3)c2cc1OC` [Cabozantinib (XL-184)] were, in that order, 3.2 fold, 1.0 fold and 0.259 fold.
As for `C=CC(=O)Nc1cc2c(Nc3ccc(F)c(Cl)c3)ncnc2cc1OCCCN1CCOCC1` [Canertinib (CI-1033)], under setting [2], the “EC50 decrease, fold (Screen N 1)” value is reported as 2.8 fold. In addition, the “EC50 decrease, fold (Screen N 2)” value under setting [1] worked out at 0.7 fold. Moreover, under setting [3], the “EC50 decrease, fold (Screen N 3)” value was determined as 424.3 fold.
In the same order, the values of `COc1cc2c(Oc3ccc4[nH]c(C)cc4c3F)ncnc2cc1OCCCN1CCCC1` [Cediranib (AZD2171)] are 8.3 fold, 1.0 fold and 0.00538 fold.
Consider `O=C(c1ccc(F)c(F)c1Nc1ccc(I)cc1F)N1CC(O)([C@@H]2CCCCN2)C1` [Combimetinib (GDC-0973)], for which, under setting [1], the “EC50 decrease, fold (Screen N 2)” value worked out at 0.6 fold.
